Assays:
integrin α4β1 = target: T1, integrin α4β1 (Homo sapiens, UniProt P05556+P13612); test: VCAM antagonist activity (VCAM-1/α4β1 binding assay), Jurkat cells binding to VCAM-1; assay type: cell-based; conditions: Jurkat human T cells binding to recombinant human VCAM-1; read-out: VCAM antagonistic activity (IC50) α4β1
T1 construct: cell strain Jurkat (ATCC TIB-152) of human T cells, known to express integrin α4β1; endogenous in cells; host or cells: Jurkat (ATCC TIB-152)
Description: VCAM Antagonist Activity (VCAM-1/α4β1 Binding Assay)
The capacity of a test substance antagonistic to the binding of cell strain Jurkat (ATCC TIB-152) of human T cells, known to express integrin α4β1, to VCAM-1 was determined.
(§1) 100 μl/well of a solution (500 ng/ml) of recombinant human VCAM-1 (R & D systems) solution diluted with buffer A (0.1 M NaHCO3, pH 9.6) was added to a micro titer plate having 96 wells (Nunc Maxisorp). After the incubation at 4° C. overnight, unbound VCAM-1 was removed by washing once with PBS. After completion of the washing, a buffer (buffer B) obtained by diluting Block Ace (Dainippon Pharmaceutical Co., Ltd.) with PBS to ¼ concentration was added in an amount of 150 μl/well. After the incubation at room temperature for 1 hour, buffer B was removed and the plate was washed with PBS once.
Jurkat cells were washed with Dulbecco modified Eagle medium (SIGMA, hereinafter referred to as “DMEM”) twice and then incubated in DMEM containing 10 μg/ml of Calcein-AM (Wako Pure Chemical Industries, Ltd.) at 37° C. in dark place for 30 minutes to label with fluorescence. The cells were again suspended in a binding buffer (20 mM HEPES, DMEM containing 0.1% BSA).
(§2) 50 μl of a test substance of various concentrations obtained by the dilution with the binding buffer was added to the plate. Immediately thereafter, 50 μl (final volume: 100 μl/well) of the fluorescent Jurkat cells (4×10^6 cells/ml) were added thereto, and they were incubated in dark place at room temperature for 30 minutes. After the shaking on a plate shaker (IKA MTS-4) at 800 rpm for 30 seconds, the solution was immediately removed to remove the unbound cells. The fluorescence quantity of the bound cells remaining in the wells was determined with a fluorescent plate reader (Wallac 1920 ARVO multi-label counter) (filter excitation wave length: 485 nm, emission wave length: 535 nm). The fluorescent strength thus obtained is proportional to the number of Jurkat cells bound to VCAM-1 and remaining on the plate. The binding rate of each test material in various concentrations was determined while the fluorescent strength of the test material-free well was determined to be 100%.

integrin α4β7 = target: T2, integrin α4β7 (Homo sapiens, UniProt P13612+P26010); test: VCAM antagonistic activity (VCAM-1/α4β7 binding assay), RPMI-8866 cells binding to VCAM-1; assay type: cell-based; conditions: RPMI-8866 human B lymphoma cells binding to recombinant human VCAM-1; binding buffer with 4 mM MnCl2
T2 construct: lymphoma cell strain RPMI-8866 of human B cells, known to express integrin α4β7; endogenous in cells; host or cells: RPMI-8866
T2 sequence (P13612 34-1032): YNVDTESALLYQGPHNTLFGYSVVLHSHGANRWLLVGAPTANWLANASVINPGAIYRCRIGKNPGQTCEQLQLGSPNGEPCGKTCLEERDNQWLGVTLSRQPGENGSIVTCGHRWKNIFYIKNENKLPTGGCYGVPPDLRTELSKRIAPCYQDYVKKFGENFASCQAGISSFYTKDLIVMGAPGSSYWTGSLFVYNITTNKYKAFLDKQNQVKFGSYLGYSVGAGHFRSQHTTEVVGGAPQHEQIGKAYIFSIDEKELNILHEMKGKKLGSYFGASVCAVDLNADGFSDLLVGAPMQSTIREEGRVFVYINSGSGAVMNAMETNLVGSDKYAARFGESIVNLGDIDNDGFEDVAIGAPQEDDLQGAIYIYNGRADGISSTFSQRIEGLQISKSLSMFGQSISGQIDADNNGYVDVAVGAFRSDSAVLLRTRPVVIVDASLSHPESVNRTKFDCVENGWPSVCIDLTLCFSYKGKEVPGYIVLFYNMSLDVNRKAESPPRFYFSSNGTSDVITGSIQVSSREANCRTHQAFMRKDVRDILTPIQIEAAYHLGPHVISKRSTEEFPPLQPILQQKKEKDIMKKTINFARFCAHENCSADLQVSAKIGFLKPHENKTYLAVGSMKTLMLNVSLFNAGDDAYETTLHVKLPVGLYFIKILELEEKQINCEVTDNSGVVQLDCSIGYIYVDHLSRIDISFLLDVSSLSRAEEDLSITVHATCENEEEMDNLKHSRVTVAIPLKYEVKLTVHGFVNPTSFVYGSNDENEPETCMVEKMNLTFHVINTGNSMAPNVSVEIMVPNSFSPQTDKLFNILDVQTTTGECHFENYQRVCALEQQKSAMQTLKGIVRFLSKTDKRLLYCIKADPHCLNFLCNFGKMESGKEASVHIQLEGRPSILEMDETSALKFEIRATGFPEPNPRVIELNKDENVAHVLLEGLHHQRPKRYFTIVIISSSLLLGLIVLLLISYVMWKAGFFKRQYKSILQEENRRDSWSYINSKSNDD
T2 sequence (P26010 20-798): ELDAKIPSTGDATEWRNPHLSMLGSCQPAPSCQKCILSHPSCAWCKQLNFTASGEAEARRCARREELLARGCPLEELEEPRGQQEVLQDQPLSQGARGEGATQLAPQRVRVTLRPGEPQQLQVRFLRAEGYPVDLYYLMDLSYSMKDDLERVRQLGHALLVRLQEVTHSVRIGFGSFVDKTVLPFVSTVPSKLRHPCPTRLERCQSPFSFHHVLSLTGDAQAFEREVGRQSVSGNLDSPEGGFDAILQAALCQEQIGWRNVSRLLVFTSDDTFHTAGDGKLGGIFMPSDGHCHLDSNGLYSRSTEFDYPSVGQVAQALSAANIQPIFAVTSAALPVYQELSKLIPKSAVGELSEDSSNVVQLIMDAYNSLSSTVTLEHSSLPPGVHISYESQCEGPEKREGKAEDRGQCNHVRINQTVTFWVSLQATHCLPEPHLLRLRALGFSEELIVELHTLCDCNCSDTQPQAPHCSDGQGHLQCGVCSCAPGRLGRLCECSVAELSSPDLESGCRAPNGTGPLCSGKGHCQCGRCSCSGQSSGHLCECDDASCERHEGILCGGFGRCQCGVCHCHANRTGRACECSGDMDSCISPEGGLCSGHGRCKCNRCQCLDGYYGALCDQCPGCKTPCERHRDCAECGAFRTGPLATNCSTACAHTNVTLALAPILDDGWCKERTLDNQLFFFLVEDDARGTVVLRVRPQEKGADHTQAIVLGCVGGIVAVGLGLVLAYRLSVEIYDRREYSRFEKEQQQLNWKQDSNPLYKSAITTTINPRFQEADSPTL
Description: VCAM Antagonistic Activity (VCAM-1/α4β7 Binding Assay)
The capacity of a test substance antagonistic to the binding of lymphoma cell strain RPMI-8866 of human B cells, known to express integrin α4β7, to VCAM-1 was determined.
as §1
RPMI-8866 cells were washed with DMEM twice and incubated in Dulbecco modified Eagle medium containing 10 μg/ml of Calcein-AM (Wako Pure Chemical Industries, Ltd.) (SIGMA, hereinafter referred to as “DMEM”) in dark place at 37° C. for 30 minutes to label with fluorescence. The cells were again suspended in a binding buffer (20 mM HEPES, DMEM containing 0.1% BSA) containing 4 mM of MnCl2.
as §2, with “RPMI-8866” for “Jurkat”, “1420” for “1920”

T1 sequence (P05556 21-798, one chain of several): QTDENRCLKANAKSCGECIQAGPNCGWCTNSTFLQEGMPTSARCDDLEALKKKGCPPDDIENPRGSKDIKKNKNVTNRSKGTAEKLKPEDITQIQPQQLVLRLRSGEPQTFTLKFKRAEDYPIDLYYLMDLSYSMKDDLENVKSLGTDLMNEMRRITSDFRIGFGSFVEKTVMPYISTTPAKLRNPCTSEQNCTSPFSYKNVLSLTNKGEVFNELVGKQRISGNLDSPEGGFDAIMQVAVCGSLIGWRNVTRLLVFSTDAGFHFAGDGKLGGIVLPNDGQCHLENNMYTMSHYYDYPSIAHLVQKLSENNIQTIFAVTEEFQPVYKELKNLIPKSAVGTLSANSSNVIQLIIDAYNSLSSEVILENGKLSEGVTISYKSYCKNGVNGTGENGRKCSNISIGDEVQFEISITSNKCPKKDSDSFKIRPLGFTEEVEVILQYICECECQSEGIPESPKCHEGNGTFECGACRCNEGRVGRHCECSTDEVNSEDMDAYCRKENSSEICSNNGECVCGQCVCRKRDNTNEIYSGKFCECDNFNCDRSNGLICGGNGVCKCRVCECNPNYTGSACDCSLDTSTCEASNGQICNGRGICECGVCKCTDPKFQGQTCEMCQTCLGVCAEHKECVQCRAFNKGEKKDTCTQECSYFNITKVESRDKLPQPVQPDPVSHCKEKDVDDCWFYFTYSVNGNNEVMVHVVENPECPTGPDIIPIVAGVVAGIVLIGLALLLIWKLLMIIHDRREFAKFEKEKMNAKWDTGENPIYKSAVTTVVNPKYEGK

IC50 (integrin α4β1)	IC50 (integrin α4β7)	SMILES
2460 nM	66.1 nM	Cc1cccc2[nH]c(=O)n(-c3ccc(C[C@H](NC(=O)c4c(Cl)cccc4Cl)C(=O)O)cc3)c(=O)c12 [Example 53]
71 nM	9.8 nM	O=C(N[C@@H](Cc1ccc(-n2c(=O)[nH]c3cccc(Cl)c3c2=O)cc1)C(=O)O)c1c(Cl)cccc1Cl [Example 54]
639 nM	29.9 nM	CC(C)n1c(=O)n(-c2ccc(C[C@H](NC(=O)c3c(Cl)cccc3Cl)C(=O)O)cc2)c(=O)c2cc([N+](=O)[O-])ccc21 [Example 57]
540 nM	35.8 nM	O=C(N[C@@H](Cc1ccc(-n2c(=O)c3cc([N+](=O)[O-])ccc3n(C3CCC3)c2=O)cc1)C(=O)O)c1c(Cl)cccc1Cl [Example 59]
780 nM	36.1 nM	O=C(N[C@@H](Cc1ccc(-n2c(=O)c3cc([N+](=O)[O-])ccc3n(C3CCCC3)c2=O)cc1)C(=O)O)c1c(Cl)cccc1Cl [Example 60]
1150 nM	42 nM	CC(C)Cn1c(=O)n(-c2ccc(C[C@H](NC(=O)c3c(Cl)cccc3Cl)C(=O)O)cc2)c(=O)c2cc([N+](=O)[O-])ccc21 [Example 61]
1450 nM	45 nM	O=C(N[C@@H](Cc1ccc(-n2c(=O)c3cc([N+](=O)[O-])ccc3n(CC3CCCCC3)c2=O)cc1)C(=O)O)c1c(Cl)cccc1Cl [Example 62]
28 nM	1.3 nM	Cn1c(=O)n(-c2ccc(C[C@H](NC(=O)c3c(Cl)cccc3Cl)C(=O)O)cc2)c(=O)c2cc([N+](=O)[O-])ccc21 [Example 63]
330 nM	7 nM	O=C(N[C@@H](Cc1ccc(-n2c(=O)c3cc([N+](=O)[O-])ccc3n(Cc3ccccc3)c2=O)cc1)C(=O)O)c1c(Cl)cccc1Cl [Example 65]
170 nM	1.3 nM	Cn1c(=S)n(-c2ccc(C[C@H](NC(=O)c3c(Cl)cccc3Cl)C(=O)O)cc2)c(=O)c2cc([N+](=O)[O-])ccc21 [Example 66]
370 nM	2.2 nM	CCn1c(=S)n(-c2ccc(C[C@H](NC(=O)c3c(Cl)cccc3Cl)C(=O)O)cc2)c(=O)c2cc([N+](=O)[O-])ccc21 [Example 67]
350 nM	1.5 nM	O=C(N[C@@H](Cc1ccc(-n2c(=O)c3cc([N+](=O)[O-])ccc3n(C3CC3)c2=S)cc1)C(=O)O)c1c(Cl)cccc1Cl [Example 68]
5630 nM	2.5 nM	O=C(N[C@@H](Cc1ccc(-n2c(=O)c3cc([N+](=O)[O-])ccc3n(Cc3ccccc3)c2=S)cc1)C(=O)O)c1c(Cl)cccc1Cl [Example 69]
34 nM	3.5 nM	Cn1c(=O)n(-c2ccc(C[C@H](NC(=O)c3c(Cl)cccc3Cl)C(=O)O)cc2)c(=O)c2c(Cl)ccc(Cl)c21 [Example 70]
185 nM	11 nM	Cn1c(=O)n(-c2ccc(C[C@H](NC(=O)c3c(Cl)cccc3Cl)C(=O)O)cc2)c(=O)c2cc(Cl)cc(Cl)c21 [Example 71]
27 nM	2.6 nM	Cn1c(=O)n(-c2ccc(C[C@H](NC(=O)c3c(Cl)cccc3Cl)C(=O)O)cc2)c(=O)c2ccc(F)cc21 [Example 72]
53 nM	2.5 nM	Cn1c(=O)n(-c2ccc(C[C@H](NC(=O)c3c(Cl)cccc3Cl)C(=O)O)cc2)c(=O)c2cccnc21 [Example 74]
960 nM	74 nM	O=C(N[C@@H](Cc1ccc(-n2c(=O)[nH]c3nccnc3c2=O)cc1)C(=O)O)c1c(Cl)cccc1Cl [Example 80]
72 nM	8.6 nM	O=C(N[C@@H](Cc1ccc(-n2nnc3c(Cl)ccc(Cl)c3c2=O)cc1)C(=O)O)c1c(Cl)cccc1Cl [Example 81]
511 nM	43.7 nM	O=C(N[C@@H](Cc1ccc(-n2nnc3ccccc3c2=O)cc1)C(=O)O)c1c(Cl)cccc1Cl [Example 90]
4030 nM	4.8 nM	CCOc1nc2ccc(Cl)cc2c(=O)n1-c1ccc(C[C@H](NC(=O)c2c(Cl)cccc2Cl)C(=O)O)cc1 [Example 93]
960 nM	1.8 nM	CCOc1nc2cc(F)ccc2c(=O)n1-c1ccc(C[C@H](NC(=O)c2c(Cl)cccc2Cl)C(=O)O)cc1 [Example 95]
1500 nM	13 nM	Cc1cccc2c1c(=O)n(-c1ccc(C[C@H](NC(=O)c3c(Cl)cccc3Cl)C(=O)O)cc1)c(=O)n2Cc1ccccc1 [Example 97]
16 nM	1.4 nM	CC(=O)Nc1ccc2c(c1)c(=O)n(-c1ccc(C[C@H](NC(=O)c3c(Cl)cccc3Cl)C(=O)O)cc1)c(=O)n2C [Example 104]

Source: patent US8426588B2, “Phenylalanine derivatives” (Ajinomoto Co, Inc., priority 2000, dated 2013)
